{"source": "patent US20240415801A1", "about": "“Methods and Compositions for Treating Fibroids” (Lundquist Institute for Biomedical Innovation at …, priority 2023, published 2024)", "key": {"[1]": {"test_system": "leiomyoma smooth muscle cells (LSMC)", "assay": "3D spheroid culture of leiomyoma smooth muscle cells, qRT-PCR (Example 2)", "assay_type": "cell-based, human", "details": "3D cultured LSMC, 5 μM, 24 h", "experimental": "Leiomyoma smooth muscle cells (LSMC) were cultured in DMEM supplemented with 10% fetal bovine serum until reaching confluence with a change of media every 2-3 days. Cells at passages p1 to p3 were used for all experiments. Isolated LSMC were plated in 6-well plates (1.5×10^5 cells/well) which were coated with 0.5% agarose gel and incubated 48 hours for spheroid formation with size ranging from 50 μm to 250 μm in diameter (1). For blocking IκBα phosphorylation and nuclear translocation of NFκB, LSMC spheroids were treated with 5 μM of Bay 11-7082 (Cayman Chemical, Ann Arbor, Michigan) for 24 hours. […]\nTotal RNA was extracted from the xenografts using TRIzol (Thermo Fisher Scientific Inc., Waltham, MA). RNA concentration and integrity was determined using a Nanodrop 2000c spectrophotometer (Thermo Scientific, Wilmington, DE) and Agilent 2100 Bioanalyzer (Agilent Technologies, Santa Clara, CA) as previously described (7, 8). […] Quantitative RT-PCR was carried out using SYBR gene expression master mix (Applied Biosystems). […] The expression levels of selected genes were quantified using Invitrogen StepOne System with FBXW2 (F-box and WD repeat domain containing 2) used for normalization (9). All reactions were run in triplicate and relative mRNA expression was determined using the comparative cycle threshold method (2−ΔΔCq), as recommended by the supplier (Applied Biosystems). […]"}, "[2]": {"test_system": "primary fibroid smooth muscle cells", "details": "refs [10, 93]; cited from earlier work"}, "fibroid xenografts": {"test_system": "fibroid xenografts", "assay": "Quantitative RT-PCR of xenografts (Example 2)", "assay_type": "in vivo, SCID/Beige mice", "details": "5 mg/kg, 8 weeks, n=13", "experimental": "Total RNA was extracted from the xenografts using TRIzol (Thermo Fisher Scientific Inc., Waltham, MA). RNA concentration and integrity was determined using a Nanodrop 2000c spectrophotometer (Thermo Scientific, Wilmington, DE) and Agilent 2100 Bioanalyzer (Agilent Technologies, Santa Clara, CA) as previously described (7, 8). Briefly, 2 μg of RNA was reverse transcribed using random primers for selected genes according to the manufacturer's guidelines (Applied Biosystems, Carlsbad, CA). Quantitative RT-PCR was carried out using SYBR gene expression master mix (Applied Biosystems). Reactions were incubated for 10 min at 95° C. followed by 40 cycles for 15 seconds at 95° C. and 1 min at 60° C. The expression levels of selected genes were quantified using Invitrogen StepOne System with FBXW2 (F-box and WD repeat domain containing 2) used for normalization (9). All reactions were run in triplicate and relative mRNA expression was determined using the comparative cycle threshold method (2−ΔΔCq), as recommended by the supplier (Applied Biosystems). Values were expressed as fold change compared to the control group. […]"}, "[3]": {"assay": "Blood chemistry panel (Example 1)", "assay_type": "in vivo, SCID/Beige mice", "details": "20 mg/kg daily i.p.", "experimental": "After 8 weeks of treatment with either the vehicle or Bay, plasma chemistry was analyzed. Specifically, 100 μL of plasma was transferred into the Comprehensive Diagnostic Profile Rotor (#500-1038, Abaxis, Union City, CA, USA). Subsequently, the levels of glucose, creatinine, BUN, phosphorus, sodium, albumin, alkaline phosphatase, serum glutamic pyruvic transaminase (SGPT; ALT), total protein, globulin, total bilirubin, and amylase were assessed using the VetScan VS2 chemistry analyzer (Abaxis, Union City, CA, USA) as previously described."}}}
{"smiles": "Cc1ccc(S(=O)(=O)/C=C/C#N)cc1", "note": "[Bay 11-7082]", "values": [{"measurement": "expression of IL8, TGFB3, Col3A1, CDK2, CCND1, DNMT1 and DNMT3A", "setting": "[1]", "result": "significant decrease"}, {"measurement": "expression of miR-29c and miR-200c", "setting": "[2]", "result": "induced"}, {"measurement": "mRNA expression of COL1A1, COL3A1, FN1, TGF-β3, CCND1, CDK2, E2F1, EZH2, MyD88 and SPARC", "setting": "fibroid xenografts", "result": "significant decrease"}, {"measurement": "changes in blood chemistry including liver, kidney and pancreatic function", "setting": "[3]; 8 weeks", "result": "no changes"}, {"measurement": "Albumin (mean ± SEM)", "setting": "[3]; plasma after 8 weeks", "result": "3.5 ± 0.14", "unit": "g/dL"}, {"measurement": "Alkaline phosphatase (mean ± SEM)", "setting": "[3]; plasma after 8 weeks", "result": "91.9 ± 20.05", "unit": "U/l"}, {"measurement": "Amylase (mean ± SEM)", "setting": "[3]; plasma after 8 weeks", "result": "643.0 ± 36.82", "unit": "U/l"}, {"measurement": "BUN (mean ± SEM)", "setting": "[3]; plasma after 8 weeks", "result": "27.1 ± 5.75", "unit": "mg/dL"}, {"measurement": "Creatinine (mean ± SEM)", "setting": "[3]; plasma after 8 weeks", "result": "0.4 ± 0.03", "unit": "mg/dL"}, {"measurement": "Globulin (mean ± SEM)", "setting": "[3]; plasma after 8 weeks", "result": "1.1 ± 0.24", "unit": "g/dL"}, {"measurement": "Glucose (mean ± SEM)", "setting": "[3]; plasma after 8 weeks", "result": "261.0 ± 14.63", "unit": "mg/dL"}, {"measurement": "Phosphorus (mean ± SEM)", "setting": "[3]; plasma after 8 weeks", "result": "10.1 ± 0.53", "unit": "mg/dL"}, {"measurement": "SGPT (ALT) (mean ± SEM)", "setting": "[3]; plasma after 8 weeks", "result": "54.5 ± 8.71", "unit": "U/l"}, {"measurement": "Sodium (mean ± SEM)", "setting": "[3]; plasma after 8 weeks", "result": "155.3 ± 1.35", "unit": "mEq/l"}, {"measurement": "Total bilirubin (mean ± SEM)", "setting": "[3]; plasma after 8 weeks", "result": "0.3 ± 0.04", "unit": "mg/dL"}, {"measurement": "Total protein (mean ± SEM)", "setting": "[3]; plasma after 8 weeks", "result": "4.6 ± 0.16", "unit": "g/dL"}]}
